Laboratory results from ChEMBL document CHEMBL1201862, “PubChem BioAssay data set” (2004).
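A five-concentration, 48-hour dose response in 96-well plates underlies each endpoint, interpolated linearly between surrounding concentrations. At the GI50, growth is halved.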 The source made the active and inactive calls. No stated cut-off is given here; in the data, active = GI50 up to about 1.1 µM and inactive = higher.

How the values were obtained:
Experiment in all cases: inhibition of tumour cell growth, NCI panel, 48 h
UACC-62 = system: UACC-62
786-0 = system: 786-0
NCI-H226 = system: NCI-H226
IGROV-1 = system: IGROV-1
UO-31 = system: UO-31
SK-MEL-5 = system: SK-MEL-5
ACHN = system: ACHN
A498 = system: A498
HCC 2998 = system: HCC 2998
LXFL 529 = system: LXFL 529
SK-MEL-2 = system: SK-MEL-2
SF-539 = system: SF-539
HCT-116 = system: HCT-116
TK-10 = system: TK-10
Malme-3M = system: Malme-3M
SN12C = system: SN12C
SF-268 = system: SF-268
U-251 = system: U-251
RXF 393 = system: RXF 393

Structure (SMILES) | GI50 (UACC-62) | GI50 (786-0) | GI50 (NCI-H226) | GI50 (IGROV-1) | GI50 (UO-31) | GI50 (SK-MEL-5) | GI50 (ACHN) | GI50 (A498) | GI50 (HCC 2998) | GI50 (LXFL 529) | GI50 (SK-MEL-2) | GI50 (SF-539) | GI50 (HCT-116) | GI50 (TK-10) | GI50 (Malme-3M) | GI50 (SN12C) | GI50 (SF-268) | GI50 (U-251) | GI50 (RXF 393)
CCOC(=O)/C=C/c1ccccn1 | > 100 µM (inactive) | > 100 µM (inactive) | > 100 µM (inactive) | > 100 µM (inactive) | > 100 µM (inactive) | > 100 µM (inactive) | > 100 µM (inactive) | > 100 µM (inactive) | > 100 µM (inactive) | > 100 µM (inactive) | > 100 µM (inactive) | > 100 µM (inactive) | > 100 µM (inactive) | > 100 µM (inactive) | > 100 µM (inactive) | > 100 µM (inactive) | > 100 µM (inactive) | > 100 µM (inactive) | 
CCOC1C(Br)Cn2c(=O)c3cc4ccccc4cc3c(=O)n2C1C (stereo unspecified) |  | > 100 µM (inactive) | > 100 µM (inactive) | > 100 µM (inactive) | 78.5 µM (inactive) | 31.1 µM (inactive) | > 100 µM (inactive) | 12.2 µM (inactive) | 50.6 µM (inactive) | 35.8 µM (inactive) | > 100 µM (inactive) | > 100 µM (inactive) | 58.9 µM (inactive) | > 100 µM (inactive) | > 100 µM (inactive) | > 100 µM (inactive) | > 100 µM (inactive) | > 100 µM (inactive) | > 100 µM (inactive)
COc1ccc2c(c1)CCc1cnn(C3OC(COC(C)=O)C(OC(C)=O)C(OC(C)=O)C3OC(C)=O)c1-2 (stereo unspecified) | 66.5 µM (inactive) | 28.2 µM (inactive) | 79.6 µM (inactive) |  |  | 44.4 µM (inactive) | > 100 µM (inactive) | > 100 µM (inactive) | > 100 µM (inactive) | 19.1 µM (inactive) | > 100 µM (inactive) | > 100 µM (inactive) | > 100 µM (inactive) | > 100 µM (inactive) | > 10 µM (inactive) | > 100 µM (inactive) | > 100 µM (inactive) | 22.5 µM (inactive) | 
CCOc1cc2c(cnc3c4cc(OC)c(OC)cc4ccc23)cc1OC | > 100 µM (inactive) | > 100 µM (inactive) |  | > 100 µM (inactive) | > 100 µM (inactive) | > 100 µM (inactive) | > 100 µM (inactive) | > 100 µM (inactive) | > 100 µM (inactive) | > 100 µM (inactive) | > 100 µM (inactive) | > 100 µM (inactive) | > 100 µM (inactive) | > 100 µM (inactive) | > 100 µM (inactive) | > 100 µM (inactive) | > 100 µM (inactive) | > 100 µM (inactive) | 
CCOC(=O)[C@H]1CSC[C@@H](C(=O)OC)N1 | > 100 µM (inactive) | > 100 µM (inactive) |  | > 100 µM (inactive) | > 100 µM (inactive) | > 100 µM (inactive) | > 100 µM (inactive) | > 100 µM (inactive) | > 100 µM (inactive) | > 100 µM (inactive) | > 100 µM (inactive) |  | > 100 µM (inactive) | > 100 µM (inactive) | > 100 µM (inactive) | > 100 µM (inactive) | > 100 µM (inactive) | > 100 µM (inactive) | > 100 µM (inactive)
CC(=O)Nc1ccc(/C=C2\N=C(c3ccccc3)OC2=O)cc1 | 27.2 µM (inactive) | > 100 µM (inactive) | > 100 µM (inactive) | > 31.6 µM (inactive) | > 100 µM (inactive) | 57.8 µM (inactive) | > 100 µM (inactive) |  | 36.1 µM (inactive) | > 100 µM (inactive) | > 100 µM (inactive) |  | 79.4 µM (inactive) | > 100 µM (inactive) | 6.1 µM (inactive) | 55 µM (inactive) | > 100 µM (inactive) | > 100 µM (inactive) | 82.8 µM (inactive)
CN(N=O)C(=O)ON1C(=O)CCC1=O | > 100 µM (inactive) | > 100 µM (inactive) | > 100 µM (inactive) | > 100 µM (inactive) | > 100 µM (inactive) | > 100 µM (inactive) | > 100 µM (inactive) | > 100 µM (inactive) | > 100 µM (inactive) | > 100 µM (inactive) | > 100 µM (inactive) | > 100 µM (inactive) | > 100 µM (inactive) | > 100 µM (inactive) | > 100 µM (inactive) |  | > 100 µM (inactive) |  | 
Clc1ccc(C2=NOC(C3CCCCC3)C2)cc1 (stereo unspecified) | > 100 µM (inactive) | > 100 µM (inactive) | > 100 µM (inactive) | > 100 µM (inactive) | > 100 µM (inactive) | > 100 µM (inactive) | > 100 µM (inactive) | > 100 µM (inactive) | > 100 µM (inactive) | > 100 µM (inactive) | > 100 µM (inactive) | > 100 µM (inactive) | > 100 µM (inactive) | > 100 µM (inactive) | > 100 µM (inactive) | > 100 µM (inactive) | > 100 µM (inactive) | > 100 µM (inactive) | 
CCOC(=O)C(C[Si](C)(C)C)P(=O)(OCC)OCC (stereo unspecified) | > 100 µM (inactive) | > 100 µM (inactive) | > 100 µM (inactive) | > 100 µM (inactive) | > 100 µM (inactive) | > 100 µM (inactive) | > 100 µM (inactive) |  | > 100 µM (inactive) | > 100 µM (inactive) |  | > 100 µM (inactive) | > 100 µM (inactive) | > 100 µM (inactive) | > 100 µM (inactive) | > 100 µM (inactive) | > 100 µM (inactive) | > 100 µM (inactive) | > 100 µM (inactive)
N#CC1C[C@@H]2CC3(CCC2CN1C(=O)c1ccccc1)OCCO3 (stereo partly specified) | > 100 µM (inactive) | > 100 µM (inactive) |  | > 100 µM (inactive) | > 100 µM (inactive) | > 100 µM (inactive) | > 100 µM (inactive) | > 100 µM (inactive) | > 100 µM (inactive) | > 100 µM (inactive) | 0.0925 µM (active) | > 100 µM (inactive) | > 100 µM (inactive) | > 100 µM (inactive) | > 100 µM (inactive) | > 100 µM (inactive) | > 100 µM (inactive) | > 100 µM (inactive) | > 100 µM (inactive)
O=C1NC(O)n2c(=O)[nH]c(=O)n21 (stereo unspecified) | > 100 µM (inactive) | > 100 µM (inactive) | > 100 µM (inactive) | > 100 µM (inactive) | > 100 µM (inactive) | > 100 µM (inactive) | > 100 µM (inactive) |  | > 100 µM (inactive) | > 100 µM (inactive) | > 100 µM (inactive) | > 100 µM (inactive) | > 100 µM (inactive) | > 100 µM (inactive) |  | > 100 µM (inactive) | > 100 µM (inactive) | > 100 µM (inactive) | > 100 µM (inactive)
O=C(CP(=O)(O)O)c1cccs1 | > 100 µM (inactive) | > 100 µM (inactive) |  | > 100 µM (inactive) | > 100 µM (inactive) | > 100 µM (inactive) | > 100 µM (inactive) | > 100 µM (inactive) | > 100 µM (inactive) | > 100 µM (inactive) | > 100 µM (inactive) | > 100 µM (inactive) | > 100 µM (inactive) | > 100 µM (inactive) | > 100 µM (inactive) | > 100 µM (inactive) | > 100 µM (inactive) | > 100 µM (inactive) | 
